Test results from patent US10300042B2, “Apremilast for the treatment of a liver disease or a liver function abnormality” (Celgene Corporation, priority 2014, dated 2019).

Legend:
[1] = test system: Aspartate Aminotransferase; assay: AST levels in RA-002 (rheumatoid arthritis); type: in vivo, human; details: for AST High to Normal, percent of patients / AST Net Benefit / AST Normal to High, percent of patients: end of treatment (week 16); for AST High, % of patients / AST Low, % of patients / AST Normal, % of patients: Week 16
Description: The improvement in mild baseline liver function test abnormalities has been observed with apremilast daily use without any prescribed changes in physical activity, social or dietary habits. During the course of the study, there was observed a higher proportion of subjects in the 30 mg BID apremilast treatment group with normal LFTs at subsequent placebo-controlled study visits at week 16. See Tables 17 to 24 from RA-002 studies.

PDE3 = PDE3 enzyme assay; type: biochemical; details: at 10 μM
Description: (§1) PDE1, 2, 3 and 5 enzyme assays were prepared as described by Hidaka and Asano. Biochem. Biophys. Acta., 1976, 429:485; see also Nicholsen et al., Trends Pharmaco. Sci., 1991, 12:19. The PDE6 enzyme assay was prepared according to Baehr et al., J. Biol. Chem., 1979, 254:11669 and Gillespie et al., Mol. Pharm., 1989, 36: 773. The PDE7 enzyme assay was prepared according to Bloom and Beavo. Proc. Natl. Acad. Sci. USA, 1996, 93:14188-92.

Alanine Aminotransferase [2] = assay: ALT levels in PSA-005 (psoriatic arthritis); type: in vivo, human; details: for ALT High to Normal, percent of patients / ALT Net Benefit / ALT Normal to High, percent of patients: end of treatment (week 24)
From the text: Apremilast was studied in a Phase 3 trial in patients with active psoriatic arthritis who have not been previously treated with disease-modifying antirheumatic drugs. […] The improvement in mild baseline liver function test abnormalities has been observed with apremilast daily use without any prescribed changes in physical activity, social or dietary habits. […] See Tables 25 to 34 from PSA-005 studies.

[3] = test system: patients with moderate to severe plaque psoriasis; assay: Pruritus in ESTEEM 1; type: in vivo, human; details: Week 16, 30 mg BID
Description: Patients were randomized with Apremilast in an amount of 30 mg twice per day or placebo for the first 16 weeks, and from Weeks 16 to 32, all patients received Apremilast in an amount of 30 mg twice per day.

TNF-α = assay: Inhibition of TNF-α production in a mouse model; type: in vivo
From the text: The test methods were as described in WO 03/080049; Muller et al., J. Med. Chem., 1996, 39:3238; and Muller et al., Bioorg. Med. Chem. Lett., 1999, 9:1625-30.

PDE1 = PDE1 enzyme assay; type: biochemical; details: at 10 μM
Description: as §1

Alanine Aminotransferase [4] = assay: ALT levels in PSOR-008 and PSOR-009 (plaque psoriasis); type: in vivo, human; details: for ALT High, % of patients / ALT Low, % of patients / ALT Normal, % of patients: Week 16, 30 mg BID
Description: Apremilast was studied in Phase 3 trials in patients with moderate to severe plaque psoriasis. […] The improvement in mild baseline liver function test abnormalities has been observed with apremilast daily use without any prescribed changes in physical activity, social or dietary habits. During the course of the study, there was observed a higher proportion of subjects in the apremilast treatment group (30 mg BID) with normal LFTs (i.e. normal levels of ALT and AST) at subsequent placebo-controlled study visits at week 16. See Tables 11 to 16 from PSOR-008 and PSOR-009 studies.

PDE5 = PDE5 (Homo sapiens, UniProt O76074); assay: PDE5 enzyme assay; type: biochemical
Description: as §1

PDE6 = PDE6 enzyme assay; type: biochemical; details: at 10 μM
Description: as §1

[5] = Baseline High, Week 24, 20 mg BID
[6] = Baseline High, Week 24, 30 mg BID
[7] = Baseline Normal, Week 24, 20 mg BID
[8] = Baseline Normal, Week 24, 30 mg BID
[9] = Baseline Total, Week 24, 20 mg BID
[10] = Baseline Total, Week 24, 30 mg BID
[11] = 30 BID, end of treatment (week 16)

CCOc1cc([C@@H](CS(C)(=O)=O)N2C(=O)c3cccc(NC(C)=O)c3C2=O)ccc1OC [Apremilast, (+)-2-[1-(3-ethoxy-4-methoxyphenyl)-2-methylsulfonylethyl]-4-acetylaminoisoindoline-1,3-dione]
AST High to Normal, percent of patients ([1]; 20 BID): 50.0% | AST Net Benefit ([1]; 20 BID): 33.3% | AST Normal to High, percent of patients ([1]; 20 BID): 3.0% | AST High to Normal, percent of patients ([1]; 30 BID): 100.0% | AST Net Benefit ([1]; 30 BID): 50.0% | AST Normal to High, percent of patients ([1]; 30 BID): 4.7% | AST High to Normal, Difference between Placebo and APR 30 BID ([1]; 30 BID, week 16): 50% | AST Net Benefit, Difference between Placebo and APR 30 BID ([1]; 30 BID, week 16): 16.7% | AST Normal to High, Difference between Placebo and APR 30 BID ([1]; 30 BID, week 16): 1.7% | AST High to Normal, Difference between Placebo and APR 30 BID ([1]; 30 BID, week 16, listed as APR): 50.0% | AST High, % of patients ([1]; Baseline High, 20 mg BID): 50.0% | AST Low, % of patients ([1]; Baseline High, 20 mg BID): 0.0% | AST Normal, % of patients ([1]; Baseline High, 20 mg BID): 50.0% | AST High, % of patients ([1]; Baseline High, 30 mg BID): 0.0% | AST Low, % of patients ([1]; Baseline High, 30 mg BID): 0.0% | AST Normal, % of patients ([1]; Baseline High, 30 mg BID): 100.0% | AST High, % of patients ([1]; Baseline Normal, 20 mg BID): 3.0% | AST Low, % of patients ([1]; Baseline Normal, 20 mg BID): 0.0% | AST Normal, % of patients ([1]; Baseline Normal, 20 mg BID): 97.0% | AST High, % of patients ([1]; Baseline Normal, 30 mg BID): 4.7% | AST Low, % of patients ([1]; Baseline Normal, 30 mg BID): 0.0% | AST Normal, % of patients ([1]; Baseline Normal, 30 mg BID): 95.3% | AST High, % of patients ([1]; Baseline Total, 20 mg BID): 5.7% | AST Low, % of patients ([1]; Baseline Total, 20 mg BID): 0.0% | AST Normal, % of patients ([1]; Baseline Total, 20 mg BID): 94.3% | AST High, % of patients ([1]; Baseline Total, 30 mg BID): 4.5% | AST Low, % of patients ([1]; Baseline Total, 30 mg BID): 0.0% | AST Normal, % of patients ([1]; Baseline Total, 30 mg BID): 95.5% | % inhibition PDE3 (PDE3): 20% | ALT High to Normal, percent of patients (Alanine Aminotransferase [2]; 20 BID): 87.5% | ALT Net Benefit (Alanine Aminotransferase [2]; 20 BID): 53.8% | ALT Normal to High, percent of patients (Alanine Aminotransferase [2]; 20 BID): 3.3% | ALT High to Normal, percent of patients (Alanine Aminotransferase [2]; 30 BID): 72.7% | ALT Net Benefit (Alanine Aminotransferase [2]; 30 BID): 44.4% | ALT Normal to High, percent of patients (Alanine Aminotransferase [2]; 30 BID): 4.9% | ALT High to Normal, Difference between Placebo and APR 30 BID (Alanine Aminotransferase [2]; 30 BID, week 24): 22.7% | ALT Net Benefit, Difference between Placebo and APR 30 BID (Alanine Aminotransferase [2]; 30 BID, week 24): 24.4% | ALT Normal to High, Difference between Placebo and APR 30 BID (Alanine Aminotransferase [2]; 30 BID, week 24): −1.0% | ALT High to Normal, Difference between Placebo and APR 30 BID (Alanine Aminotransferase [2]; 30 BID, week 24, listed as APR): 22.7% | ALT High, % of patients (Alanine Aminotransferase [2]; [5]): 12.5% | ALT Low, % of patients (Alanine Aminotransferase [2]; [5]): 0.0% | ALT Normal, % of patients (Alanine Aminotransferase [2]; [5]): 87.5% | ALT High, % of patients (Alanine Aminotransferase [2]; [6]): 27.3% | ALT Low, % of patients (Alanine Aminotransferase [2]; [6]): 0.0% | ALT Normal, % of patients (Alanine Aminotransferase [2]; [6]): 72.7% | ALT High, % of patients (Alanine Aminotransferase [2]; [7]): 3.3% | ALT Low, % of patients (Alanine Aminotransferase [2]; [7]): 0.0% | ALT Normal, % of patients (Alanine Aminotransferase [2]; [7]): 96.7% | ALT High, % of patients (Alanine Aminotransferase [2]; [8]): 4.9% | ALT Low, % of patients (Alanine Aminotransferase [2]; [8]): 0.0% | ALT Normal, % of patients (Alanine Aminotransferase [2]; [8]): 95.1% | ALT High, % of patients (Alanine Aminotransferase [2]; [9]): 3.8% | ALT Low, % of patients (Alanine Aminotransferase [2]; [9]): 0.0% | ALT Normal, % of patients (Alanine Aminotransferase [2]; [9]): 96.2% | ALT High, % of patients (Alanine Aminotransferase [2]; [10]): 6.5% | ALT Low, % of patients (Alanine Aminotransferase [2]; [10]): 0.0% | ALT Normal, % of patients (Alanine Aminotransferase [2]; [10]): 93.5% | Baseline High ALT: High % (Alanine Aminotransferase [2]; Week 4, 20 mg BID): 30.0% | Baseline High ALT: Normal % (Alanine Aminotransferase [2]; Week 4, 20 mg BID): 70.0% | Baseline High ALT: High % (Alanine Aminotransferase [2]; Week 4, 30 mg BID): 72.7% | Baseline High ALT: Normal % (Alanine Aminotransferase [2]; Week 4, 30 mg BID): 27.3% | Baseline High ALT: High % (Alanine Aminotransferase [2]; Week 16, 20 mg BID): 12.5% | Baseline High ALT: Normal % (Alanine Aminotransferase [2]; Week 16, 20 mg BID): 87.5% | Baseline High ALT: High % (Alanine Aminotransferase [2]; Week 16, 30 mg BID): 36.4% | Baseline High ALT: Normal % (Alanine Aminotransferase [2]; Week 16, 30 mg BID): 63.6% | Baseline High ALT: High % (Alanine Aminotransferase [2]; Week 24, 20 mg BID): 12.5% | Baseline High ALT: Normal % (Alanine Aminotransferase [2]; Week 24, 20 mg BID): 87.5% | Baseline High ALT: High % (Alanine Aminotransferase [2]; Week 24, 30 mg BID): 27.3% | Baseline High ALT: Normal % (Alanine Aminotransferase [2]; Week 24, 30 mg BID): 72.7% | Change in Pruritus Visual Analog Scale (mm ± SD) [3]: −31.5 (±32.43) mm | EC50, TNF-α production (TNF-α): 0.05 mg/kg | % inhibition PDE1 (PDE1): 23% | ALT High to Normal, percent of patients (Alanine Aminotransferase [4]; [11]): 57.1% | ALT Net Benefit (Alanine Aminotransferase [4]; [11]): 53.7% | ALT Normal to High, percent of patients (Alanine Aminotransferase [4]; [11]): 3.7% | ALT High to Normal, Difference (APR 30 BID vs Placebo) (Alanine Aminotransferase [4]; 30 BID, week 16): 3.1% | ALT Net Benefit, Difference (APR 30 BID vs Placebo) (Alanine Aminotransferase [4]; 30 BID, week 16): 17.9% | ALT Normal to High, Difference (APR 30 BID vs Placebo) (Alanine Aminotransferase [4]; 30 BID, week 16): −2.1% | ALT High to Normal, Difference (APR 30 BID vs Placebo) (Alanine Aminotransferase [4]; 30 BID, week 16, listed as APR): 3.1% | ALT High, % of patients (Alanine Aminotransferase [4]; Baseline High): 42.9% | ALT Low, % of patients (Alanine Aminotransferase [4]; Baseline High): 0.0% | ALT Normal, % of patients (Alanine Aminotransferase [4]; Baseline High): 57.1% | ALT High, % of patients (Alanine Aminotransferase [4]; Baseline Normal): 3.7% | ALT Low, % of patients (Alanine Aminotransferase [4]; Baseline Normal): 0.0% | ALT Normal, % of patients (Alanine Aminotransferase [4]; Baseline Normal): 96.3% | ALT High, % of patients (Alanine Aminotransferase [4]; Baseline Total): 7.8% | ALT Low, % of patients (Alanine Aminotransferase [4]; Baseline Total): 0.0% | ALT Normal, % of patients (Alanine Aminotransferase [4]; Baseline Total): 92.2% | inhibition at 10 µM (PDE5): 3% | % inhibition PDE6 (PDE6): −6%
